# Where “and” joins values, the source holds several entries; their conditions need not be identical. Equal entries are not always repeated. Toxic doses and inconclusive results are not listed.
# Test system: BDF1 mice, P388 leukemia ip, median survival T/C
# Experiment: NCI In Vivo Anticancer Drug Screen. Data for tumor model P388 Leukemia (intraperitoneal) in B6D2F1 (BDF1) mice
# Details: endpoint: median survival time, higher = longer survival
# In short: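 Transplantable tumour in mice; compound vs vehicle dosing; survival scored; ratio of treated to control reported.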
# [1] = dose: 12.5 mg/kg/injection, schedule: Q01DX009 (ip), vehicle: saline with Tween-80
# [2] = dose: 25.0 mg/kg/injection, schedule: Q01DX009 (ip), vehicle: saline with Tween-80
# [3] = dose: 50.0 mg/kg/injection, schedule: Q01DX009 (ip), vehicle: saline with Tween-80
# [4] = dose: 50.0 mg/kg/injection, schedule: Q01DX009 (ip), vehicle: saline
# [5] = dose: 100.0 mg/kg/injection, schedule: Q01DX009 (ip), vehicle: saline
# [6] = dose: 200.0 mg/kg/injection, schedule: Q01DX009 (ip), vehicle: saline
# [7] = dose: 25.0 mg/kg/injection, schedule: Q01DX001 (ip), vehicle: saline sonified
# [8] = dose: 200.0 mg/kg/injection, schedule: Q04DX003 (ip), vehicle: Klucel (hydroxypropylcellulose) (HPC)
# [9] = dose: 400.0 mg/kg/injection, schedule: Q04DX003 (ip), vehicle: Klucel (hydroxypropylcellulose) (HPC)
# [10] = dose: 25.0 mg/kg/injection, schedule: Q04DX003 (ip), vehicle: saline
# [11] = dose: 50.0 mg/kg/injection, schedule: Q04DX003 (ip), vehicle: saline
# [12] = dose: 100.0 mg/kg/injection, schedule: Q01DX009 (ip), vehicle: saline with Tween-80
# [13] = dose: 200.0 mg/kg/injection, schedule: Q01DX009 (ip), vehicle: saline with Tween-80
# [14] = dose: 100.0 mg/kg/injection, schedule: Q01DX001 (ip), vehicle: saline with Tween-80
# [15] = dose: 200.0 mg/kg/injection, schedule: Q01DX001 (ip), vehicle: saline with Tween-80
# [16] = dose: 100.0 mg/kg/injection, schedule: Q04DX003 (ip), vehicle: Klucel (hydroxypropylcellulose) (HPC)
structure (smiles),measurement,setting,value
OC(c1cc(C23CC4CC(CC(C4)C2)C3)nc2c(Cl)cc(Cl)cc12)C1CCCCN1 (stereo not given),T/C,[1],88 % of control
same,T/C,[2],90 % of control
same,T/C,[3],89 % of control and 97 % of control
COc1cc2c(c3c1c(=O)c1cc(OC(C)=O)ccc1n3C)C=CC(C)(C)O2,T/C,"dose: 10.0 mg/kg/injection, schedule: Q01DX009 (ip), vehicle: Klucel (hydroxypropylcellulose) (HPC)",100 % of control
same,T/C,"dose: 20.0 mg/kg/injection, schedule: Q01DX009 (ip), vehicle: Klucel (hydroxypropylcellulose) (HPC)",98 % of control
same,T/C,"dose: 40.0 mg/kg/injection, schedule: Q01DX009 (ip), vehicle: Klucel (hydroxypropylcellulose) (HPC)",106 % of control
COc1ccc(-c2c(C)c(C)nc(Cl)c2C#N)c(OCc2ccccc2)c1OC,T/C,"dose: 0.1 mg/kg/injection, schedule: Q01DX009 (ip), vehicle: Klucel (hydroxypropylcellulose) (HPC)",95 % of control
NC(=O)OCCCCCl,T/C,[4],110 % of control
same,T/C,[5],107 % of control
same,T/C,[6],100 % of control
COc1ccc(-c2oc3cc(OC4OC(C)C(O)C(O)C4O)c(O)c(O)c3c(=O)c2OC2OC(C)C(O)C(O)C2O)cc1 (stereo not given),T/C,"dose: 25.0 mg/kg/injection, schedule: Q01DX009 (ip), vehicle: saline + alcohol",92 % of control
same,T/C,"dose: 50.0 mg/kg/injection, schedule: Q01DX009 (ip), vehicle: saline + alcohol",92 % of control
same,T/C,"dose: 100.0 mg/kg/injection, schedule: Q01DX009 (ip), vehicle: saline + alcohol",106 % of control
Oc1ccccc1C=NCCN1CC1.Oc1ccccc1C=NCCN1CC1.[Cu],T/C,"dose: 6.25 mg/kg/injection, schedule: Q01DX001 (ip), vehicle: saline sonified",104 % of control
same,T/C,"dose: 8.25 mg/kg/injection, schedule: Q01DX001 (ip), vehicle: saline",104 % of control
same,T/C,"dose: 12.5 mg/kg/injection, schedule: Q01DX001 (ip), vehicle: saline",112 % of control
same,T/C,"dose: 18.75 mg/kg/injection, schedule: Q01DX001 (ip), vehicle: saline",124 % of control
same,T/C,[7],118 % of control
O=C(Nc1cccc(Cl)c1)c1cc(N=Nc2ccc([N+](=O)[O-])cc2Cl)ccc1O,T/C,"dose: 25.0 mg/kg/injection, schedule: Q01DX009 (ip), vehicle: Klucel (hydroxypropylcellulose) (HPC)",114 % of control
same,T/C,"dose: 50.0 mg/kg/injection, schedule: Q01DX009 (ip), vehicle: Klucel (hydroxypropylcellulose) (HPC)",114 % of control
same,T/C,"dose: 133.0 mg/kg/injection, schedule: Q04DX003 (ip), vehicle: Klucel (hydroxypropylcellulose) (HPC)",115 % of control
same,T/C,[8],161 % of control
same,T/C,[9],155 % of control
O=S(=O)(O)O.[O]=[V],T/C,"dose: 3.12 mg/kg/injection, schedule: Q01DX009 (ip), vehicle: saline",89 % of control
same,T/C,"dose: 6.25 mg/kg/injection, schedule: Q01DX009 (ip), vehicle: saline",92 % of control
same,T/C,"dose: 8.75 mg/kg/injection, schedule: Q01DX001 (ip), vehicle: saline",95 % of control
same,T/C,"dose: 12.5 mg/kg/injection, schedule: Q01DX009 (ip), vehicle: saline",100 % of control
same,T/C,"dose: 12.5 mg/kg/injection, schedule: Q04DX003 (ip), vehicle: saline",92 % of control and 100 % of control
same,T/C,"dose: 17.5 mg/kg/injection, schedule: Q01DX001 (ip), vehicle: saline",100 % of control
same,T/C,"dose: 25.0 mg/kg/injection, schedule: Q01DX009 (ip), vehicle: saline",100 % of control
same,T/C,[10],95 % of control
same,T/C,"dose: 35.0 mg/kg/injection, schedule: Q01DX001 (ip), vehicle: saline",100 % of control
same,T/C,"dose: 50.0 mg/kg/injection, schedule: Q01DX001 (ip), vehicle: saline",90 % of control
same,T/C,[11],89 % of control
Nc1nc2ncc(CNc3ccc(C(=O)NC(CCC(=O)O)C(=O)O)cc3)nc2c(=O)[nH]1 (stereo not given),T/C,[1],100 % of control
same,T/C,[2],106 % of control
same,T/C,[3],107 % of control
same,T/C,"dose: 50.0 mg/kg/injection, schedule: Q01DX010 (ip), vehicle: saline",100 % of control
N#CC1=C(N)CCCC1,T/C,[4],97 % of control
same,T/C,[5],99 % of control
same,T/C,[6],102 % of control
Nc1c(Br)cc2c(c1Br)Cc1cc(Br)ccc1-2,T/C,[12],91 % of control
same,T/C,[13],87 % of control
CNC(=O)Cc1[nH]ccc1C(=O)O,T/C,[14],106 % of control
same,T/C,[15],103 % of control
same,T/C,"dose: 400.0 mg/kg/injection, schedule: Q01DX001 (ip), vehicle: saline with Tween-80",114 % of control
COc1c(OC)c(OC)c2c(c1OC)c(=O)c1ccccc1n2C,T/C,"dose: 50.0 mg/kg/injection, schedule: Q01DX010 (ip), vehicle: carboxymethylcellulose (CMC)",104 % of control
same,T/C,"dose: 100.0 mg/kg/injection, schedule: Q01DX010 (ip), vehicle: carboxymethylcellulose (CMC)",122 % of control
NNC(=O)C1CC2C=CCC(C2)C1 (stereo not given),T/C,"dose: 50.0 mg/kg/injection, schedule: Q01DX001 (ip), vehicle: saline with Tween-80",100 % of control
same,T/C,[14],91 % of control
same,T/C,[15],91 % of control
O=[N+]([O-])c1ccc(NCCO)c([N+](=O)[O-])c1,T/C,[3],101 % of control
same,T/C,[12],107 % of control
same,T/C,[13],113 % of control
CSC(c1ccccc1)=[N+]1CCOCC1,T/C,"dose: 50.0 mg/kg/injection, schedule: Q01DX009 (ip), vehicle: other",100 % of control
same,T/C,"dose: 50.0 mg/kg/injection, schedule: Q04DX003 (ip), vehicle: Klucel (hydroxypropylcellulose) (HPC)",100 % of control
same,T/C,"dose: 100.0 mg/kg/injection, schedule: Q01DX009 (ip), vehicle: other",118 % of control
same,T/C,[16],100 % of control
same,T/C,"dose: 200.0 mg/kg/injection, schedule: Q01DX009 (ip), vehicle: other",113 % of control
same,T/C,[8],90 % of control
CN(C)c1cc(=O)c2c(ccc3ccccc32)o1,T/C,"dose: 6.25 mg/kg/injection, schedule: Q01DX009 (ip), vehicle: saline with Tween-80",117 % of control
same,T/C,[1],97 % of control
same,T/C,[2],106 % of control
same,T/C,[3],106 % of control
COc1cc2c(c(OC)c1OC)-c1ccc(OC)c(=O)cc1[C@@H](NC(=O)C(F)(F)F)CC2,T/C,"dose: 0.09 mg/kg/injection, schedule: Q01DX009 (ip), vehicle: Klucel (hydroxypropylcellulose) (HPC)",155 % of control
same,T/C,"dose: 0.18 mg/kg/injection, schedule: Q01DX009 (ip), vehicle: Klucel (hydroxypropylcellulose) (HPC)",171 % of control
same,T/C,"dose: 0.39 mg/kg/injection, schedule: Q01DX009 (ip), vehicle: Klucel (hydroxypropylcellulose) (HPC)",245 % of control
O=S(=O)(O)CCO,T/C,[6],92 % of control
same,T/C,"dose: 400.0 mg/kg/injection, schedule: Q01DX009 (ip), vehicle: saline",100 % of control
CCOC(=O)C(C(=O)OCC)=C(C)C,T/C,[16],100 % of control
same,T/C,[8],88 % of control
same,T/C,"dose: 400.0 mg/kg/injection, schedule: Q01DX009 (ip), vehicle: saline with Tween-80",150 % of control
same,T/C,[9],103 % of control
O=N/N=c1/sc2ccccc2n1-c1ccccc1,T/C,[7],100 % of control
same,T/C,"dose: 50.0 mg/kg/injection, schedule: Q01DX001 (ip), vehicle: saline sonified",104 % of control
same,T/C,"dose: 100.0 mg/kg/injection, schedule: Q01DX001 (ip), vehicle: saline sonified",100 % of control
COc1ccc2c(C)[n+]3ccc4cc(OC)c(OC)cc4c3cc2c1 (tested in a mixture with another compound),T/C,[10],154 % of control
same,T/C,"dose: 33.0 mg/kg/injection, schedule: Q01DX009 (ip), vehicle: saline",186 % of control
same,T/C,[4],181 % of control
same,T/C,[11],154 % of control and 181 % of control
same,T/C,"dose: 75.0 mg/kg/injection, schedule: Q01DX009 (ip), vehicle: saline",118 % of control
same,T/C,"dose: 200.0 mg/kg/injection, schedule: Q04DX003 (ip), vehicle: saline",150 % of control
CCOC(=O)C1=C(C)NC(=O)NC1c1ccc(N=Cc2cc(Br)ccc2O)cc1 (stereo not given),T/C,"dose: 75.0 mg/kg/injection, schedule: Q01DX001 (ip), vehicle: saline with Tween-80",95 % of control
same,T/C,"dose: 150.0 mg/kg/injection, schedule: Q01DX001 (ip), vehicle: saline with Tween-80",90 % of control
same,T/C,"dose: 300.0 mg/kg/injection, schedule: Q01DX001 (ip), vehicle: saline with Tween-80",90 % of control

# Reference: PubChem BioAssay AID328 (DTP/NCI, 2004)
